The test system of the assay is Staphylococcus aureus. Kind of assay: Antimicrobial effectiveness testing (log reduction of bacteria, 15 seconds exposure). In kind it is cell-based. The following applies: 15 seconds at 25±1° C., undiluted. As to the method:
The tests were performed on broth cultures that were passed through at least three consecutive daily transfers but no more than ten daily transfers. The broth cultures were diluted with the appropriate broth to obtain an inoculum count of 6×10^8 to 1×10^9 CFU/ml (Mac Farland Standard ˜2.0 to 3.0). The test article was used undiluted. The exposure time and temperature was 15 seconds at 25±1° C., respectively. All tests involving the test article were conducted in triplicate. A 4.95 gram sample of the test article was placed in a sterile, screw-top 50 ml polyethylene tube at 25±1° C. The test article was inoculated with 0.05 ml of the test organism at the appropriate concentration. The tube contents were neutralized by the addition of 45 ml of Neutralizer (Tryptic or Trypticase Soy Broth (TSB) with 10% TWEEN 80, 3% Lecithin, 0.5% Sodium thiosulfate and 0.1% Histidine, pH 7.2±0.1) followed by vortexing. One ml of the neutralized sample (10^−1 dilution) was serially diluted in 10-fold steps to 10^−6 for the test article and to 10^−7 for the numbers control using tubes containing 9 ml of AOAC Neutralizer blanks. An inoculum count was determined by 10-fold serial dilutions to 10^−8 using tubes containing 9 ml of AOAC phosphate buffered dilution water. The dilutions were plated in duplicate on Letheen Agar, and plates were incubated in an inverted position for the appropriate time and at a temperature appropriate for the test organism. The test organism was a single species of Staphylococcus aureus.
Antimicrobial effectiveness was determined by calculating the log reduction of bacteria in the test sample. For comparison, the log reduction for a 0.02% CHX-gluconate solution is 0.5, the log reduction for a 0.13% BAC solution is 0.5, and the log reduction for a 1% cocamidopropyl PG-dimonium chloride phosphate solution is 2. When added together, the total log reduction for the three ingredients tested individually is 3.

Where the note is “0.02% solution”, `N=C(NCCCCCCNC(=N)NC(=N)Nc1ccc(Cl)cc1)NC(=N)Nc1ccc(Cl)cc1.O=C(O)[C@H](O)[C@@H](O)[C@H](O)[C@H](O)CO.O=C(O)[C@H](O)[C@@H](O)[C@H](O)[C@H](O)CO` [CHX-gluconate, chlorhexidine gluconate] had a log reduction of 0.5. Regarding `CCCCCCCCCCCC(=O)NCCC[N+](C)(C)CC(O)COP(=O)([O-])OCC(O)C[N+](C)(C)CCCNC(=O)CCCCCCCCCCC.[Cl-].[Cl-].[Na+]` (stereo not drawn) [cocamidopropyl PG-dimonium chloride phosphate], the log reduction (1% solution) was 2.

In turn, benzalkonium chloride [BAC] displayed a log reduction (0.13% solution) of 0.5.

(Values after patent US9693564B2, “Water based antimicrobial composition using benzalkonium chloride and cocamidopropyl PG-dimonium chloride phosphate” (SAFEHANDS SOLUTIONS, LLC, priority 2011, dated 2017).)
